IC50 data for seven molecules are collected here from ChEMBL document CHEMBL1148004, “Synthesis, characterization and antiamoebic activity of new indole-3-carboxaldehyde thiosemicarbazones and their Pd(II) complexes” (Eur J Med Chem, 2007).

The structures appear in SMILES notation.

As usually defined, the IC50 is the midpoint of a concentration-inhibition curve. Low readings indicate greater potency in that assay, high ones weaker potency in that assay.

The assay deals with Entamoeba histolytica. The experiment in a line: Antiamoebic activity against Entamoeba histolytica HM1:IMSS by microdilution method. In kind it is functional, organism-based. In general terms: Broth dilution looks for growth in wells or tubes with falling amounts of substance.

`CC1CCN(C(=S)N/N=C\c2c[nH]c3ccccc23)CC1` displayed an IC50 of 8.37 µM. This lies in the single-digit micromolar range.
The molecule `S=C(N/N=C\c1c[nH]c2ccccc12)N1CCCC1` yielded an IC50 of 14.6 µM.
`S=C(N/N=C\c1c[nH]c2ccccc12)NC1CCCCCCC1` came in with an IC50 of 6.08 µM.
With `S=C(N/N=C\c1c[nH]c2ccccc12)N1CCCc2ccccc21` the figure was 1.68 µM.
With `S=C(N/N=C\c1c[nH]c2ccccc12)N1CCN(c2ccccc2)CC1` the figure was 3.09 µM; with `S=C(N/N=C\c1c[nH]c2ccccc12)NC1CCCC1`, 13.9 µM.
In the case of `S=C(N/N=C\c1c[nH]c2ccccc12)NC1C2CC3CC(C2)CC1C3` (configuration not stated), the midpoint of inhibition, the IC50, lay at 1.08 µM. Against the preceding molecule, the IC50 is about 13-fold lower.
